Earlier results as cited in patent US20030206958A1, “Chitosan biopolymer for the topical delivery of active agents” (priority 2002, published 2003).

CC1=C(/C=C/C(C)=C/C=C/C(C)=C/C(=O)O)C(C)(C)CCC1 [tretinoin, all-trans retinoic acid]
Patients with irritation (topical (Gilchrest, 1997)): 90 % of patients | Patients discontinuing treatment because of irritation (topical (Stam-Posthuma et al., 1998)): ~50 % of patients
